Tests used:
5-lipoxygenase (5-LOX) = target: T1, 5-lipoxygenase (5-LOX) (Homo sapiens, UniProt P09917); assay: UV ([…] nm) linoleic acid to HPOD assay, human recombinant 5-LOX; assay type: biochemical
T1 construct: gene ALOX5
T1 sequence (P09917 1-674): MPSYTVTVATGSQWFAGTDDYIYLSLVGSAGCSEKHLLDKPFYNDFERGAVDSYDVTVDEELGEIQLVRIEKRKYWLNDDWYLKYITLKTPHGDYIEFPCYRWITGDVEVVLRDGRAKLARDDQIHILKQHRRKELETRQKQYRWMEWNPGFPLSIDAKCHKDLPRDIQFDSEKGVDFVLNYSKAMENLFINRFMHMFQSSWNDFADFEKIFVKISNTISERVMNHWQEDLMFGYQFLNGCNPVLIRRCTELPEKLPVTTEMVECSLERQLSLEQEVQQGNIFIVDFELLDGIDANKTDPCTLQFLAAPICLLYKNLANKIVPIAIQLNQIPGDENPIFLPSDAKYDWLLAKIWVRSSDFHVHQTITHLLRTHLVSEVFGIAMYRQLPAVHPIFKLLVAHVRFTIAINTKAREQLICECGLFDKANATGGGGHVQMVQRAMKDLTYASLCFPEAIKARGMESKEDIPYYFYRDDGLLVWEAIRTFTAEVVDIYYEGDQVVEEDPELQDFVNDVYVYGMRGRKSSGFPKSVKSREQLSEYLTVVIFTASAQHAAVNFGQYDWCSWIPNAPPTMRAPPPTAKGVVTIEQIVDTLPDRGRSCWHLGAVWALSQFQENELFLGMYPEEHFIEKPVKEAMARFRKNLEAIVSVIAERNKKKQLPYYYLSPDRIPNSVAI

cyclooxygenase-2 (COX-2) = target: T2, cyclooxygenase-2 (COX-2) (Homo sapiens, UniProt P35354); assay: colorimetric COX inhibitor screening assay (Cayman […]), human recombinant COX-2
T2 construct: gene PTGS2
T2 sequence (P35354 18-604): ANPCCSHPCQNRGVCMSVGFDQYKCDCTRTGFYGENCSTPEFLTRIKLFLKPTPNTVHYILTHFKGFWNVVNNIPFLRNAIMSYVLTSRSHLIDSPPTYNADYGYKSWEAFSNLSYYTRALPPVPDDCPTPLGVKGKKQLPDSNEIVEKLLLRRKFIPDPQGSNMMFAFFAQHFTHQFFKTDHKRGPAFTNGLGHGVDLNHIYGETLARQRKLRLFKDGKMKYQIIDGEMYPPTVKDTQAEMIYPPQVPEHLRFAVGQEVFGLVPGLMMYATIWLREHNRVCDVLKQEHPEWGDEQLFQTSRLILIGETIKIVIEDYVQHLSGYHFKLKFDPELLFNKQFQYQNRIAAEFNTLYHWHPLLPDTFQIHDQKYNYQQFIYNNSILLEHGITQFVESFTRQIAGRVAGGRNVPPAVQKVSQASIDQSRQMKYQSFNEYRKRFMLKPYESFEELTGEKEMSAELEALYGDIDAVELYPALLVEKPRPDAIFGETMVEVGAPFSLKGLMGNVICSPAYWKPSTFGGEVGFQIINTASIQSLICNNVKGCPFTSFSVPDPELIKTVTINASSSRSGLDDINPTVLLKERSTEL

`O=C1CC(c2ccccc2)Oc2ccc(O)cc21` (centres unmarked) [6-HF, 6-Hydroxyflavanone] showed an IC50 (5-lipoxygenase (5-LOX)) of 36 µM and an IC50 (cyclooxygenase-2 (COX-2)) of 21.9 µM.

Source: paper PMC10255489, “Targeting Anti-Inflammatory Pathways to Treat Diabetes-Induced Neuropathy by 6-Hydroxyflavanone” (Nutrients, 2023)
